Experimental data reported in patent publication US20050124658A1, “Decahydronaphtho[2,3-c]furan derivatives” (Segami Chemical Research Center, priority 2001, published 2005).

Row | SMILES | melting point [°C]
1 | O=C1OCC2C3OC(C4CCCCC43)C12 (stereo not shown) | 90 to 91
2 | O=C1OCC2C1CC1CCCCC1C2O (stereo not shown) [Example 5, Decahydro-4-hydoxy-naphtho[2,3-c]furan-1(3H)-one] | 149 to 150
3 | COC1OCC2C(O)C3CCCCC3CC12 (stereo not shown) [Example 6, Dodecahydro-1-methoxy-naphtho[2,3-c]furan-4-ol] | 75 to 77
4 | C=C1C2CCCCC2CC2C(OC)OCC12 (stereo not shown) [Example 8, Dodecahydro-1-methoxy-4-methylenenaphtho[2,3-c]furan] | 53 to 55
5 | COC1OCC2C1CC1CCCCC1C2COC(=O)c1ccc(Br)cc1 (stereo not shown) [Example 10, Dodecahydro-4-(4-bromophenyl)carboxymethyl-1-methoxynaphtho[2,3-c]furan] | 107 to 108

More lines, now with the values ahead:

Row | melting point [°C] | SMILES
6 | 105 to 106 | O=C1OCC2C3OC(C4=C3CCCC4)C12 (stereo not shown)
7 | 78 to 79 | COC1OCC2C(=O)C3CCCCC3CC12 (stereo not shown) [Example 7, Decahydro-1-methoxy-naphtho[2,3-c]furan-4(1H)-one]
